Reference: patent publication US6200984A, “Naphtho-imidazo pyridine derivatives useful in treating central nervous system disorders” (Ortho-McNeil Pharmaceutical, Inc., priority 1998, dated 2001)
pIC50: −log10 of the molar value. Where two headings read alike, the source gives them in different places.

Assays:
[1] = target: benzodiazepine site of the GABA-A receptor; test: Benzodiazepine Receptor Binding Assay (inhibition of 3H-flunitrazepam binding); details: 3H-flunitrazepam ca. 3 nM
[2] = test system: Metrazol-Induced Convulsions; test: Suppression of Metrazol-Induced Convulsions in Adult Male Mice; assay type: in vivo, mice (male CD1); details: Mus musculus, ip, read-out: anti-metrazol ED50
Experimental: Assay to Determine the Suppression of Metrazol-Induced Convulsions in Adult Male Mice
Male CD1 mice, were fasted at least 16 hours, were divided into equal groups and test compounds or vehicle were administered parenterally. Water was not withheld except during the period of observations. […] Metrazol was dissolved in 0.9% sodium chloride solution, and its dose volume was 10 ml/kg. Animals were housed individually for observation of clonic convulsions, tonic convulsions and death for a period of 30 min. […] The biological assay was considered to be valid if the effects of a known anticonvulsant (positive control) were detected, within the same experiment. Activity was reported as percent reduction of clonic convulsions from the vehicle group.

[3] = test system: behavior suppressed by punishment (rat conflict); test: Suppression of Anxiety in the Adult Male Rat (rat conflict, Vogel); assay type: in vivo; details: po
Experimental: Assay to Measure the Suppression of Anxiety in the Adult Male Rat
Male rats were deprived of water for 48 hours and were deprived of food for 24 hours prior to testing. After the first 24 hours of water deprivation, they were placed in the conflict chamber for a training period; wherein, they were allowed 200 unpunished licks from a bottle containing tap water. The experiment was run the next day. At the expected time of peak activity, the animals were placed in the chamber and allowed access to tap water. […] Their first lick initiates a 3-min test session. Subsequently,every 20th lick was punished by a 0.2-s shock delivered via the stainless-steel drinking-tube. […] The Wilcoxon rank-sum test (Mann-WhitneyU-test) was used to test for an increase (p<0.05, 1-tailed) in the median number of shocks in drug-treated groups, compared to a concurrently run vehicle-treated group. The biological assay is considered to be valid if the effects of a known anxiolytic (positive control) are detected, within the same experiment.

[4] = minimum effective dose, Wilcoxon rank-sum test p<0.05, read-out: rat conflict MED
[5] = mice, s.c. CD90 metrazol, clonic convulsions
[6] = Rattus norvegicus, read-out: rat conflict MED, po, minimum effective dose, Wilcoxon rank-sum test p<0.05

`O=C1CCN2C(=C1C(=O)Nc1ccccc1F)Nc1cc3ccccc3cc12` [Example 1, 3-oxo-1,2,3,5-tetrahydronaphtho[2',3': 4,5]imidazo[1,2-a]pyridine-4-carboxylic acid (2-fluorophenyl)amide] gave a pIC50 [1] of 7.77, an ED50 [2] of 1 mg/kg and a minimal effective dose [3, 4] of over 10 mg/kg.
`O=C1CCN2C(=C1C(=O)Nc1c(F)cccc1F)Nc1cc3ccccc3cc12` [Example 2, 3-oxo-1,2,3,5-tetrahydronaphtho[2',3': 4,5]imidazo[1,2-a]pyridine-4-carboxylic acid (2,6-difluorophenyl)amide] was tested, and the pIC50 [1] was 8.40, the ED50 [2, 5] was 1 mg/kg and the minimal effective dose [3, 6] was over 10 mg/kg.
`CCN1C2=C(C(=O)Nc3ccccc3F)C(=O)CCN2c2cc3ccccc3cc21` [Example 3, 5-ethyl-3-oxo-1,2,3,5-tetrahydronaphtho[2',3': 4,5]imidazo[1,2-a]pyridine-4-carboxylic acid (2-fluorophenyl)amide] showed a pIC50 [1] of 9.03, an ED50 [2, 5] of under 1 mg/kg and a minimal effective dose [3, 4] of 10 mg/kg.
With `CCN1C2=C(C(=O)Nc3c(F)cccc3F)C(=O)CCN2c2cc3ccccc3cc21` [Example 4, 5-ethyl-3-oxo-1,2,3,5-tetrahydronaphtho[2',3': 4,5]imidazo[1,2-a]pyridine-4-carboxylic acid (2,6-difluorophenyl)amide] the pIC50 [1] was 8.16, the ED50 [2, 5] was over 1 mg/kg and the minimal effective dose [3, 4] was over 10 mg/kg.
`COCCN1C2=C(C(=O)Nc3ccccc3F)C(=O)CCN2c2cc3ccccc3cc21` [Example 5, 5-(2-methoxyethyl)-3-oxo-1,2,3,5-tetrahydronaphthol[2',3': 4,5]-imidazo[1,2-a]pyridine-4-carboxylic acid (2-fluorophenyl)amide] gave a pIC50 [1] of 9.43, an ED50 [2, 5] of under 1 mg/kg and a minimal effective dose [3, 4] of 10 mg/kg.
Compound `CN(CCN1C2=C(C(=O)Nc3ccccc3F)C(=O)CCN2c2cc3ccccc3cc21)Cc1ccccc1` [Example 6, 5-[2-(benzylmethylamino)ethyl)-3-oxo-1,2,3,5-tetrahydronaphtho[2',3': 4,5]imidazo[1,2-a]pyridine-4-carboxylic acid (2-fluorophenyl)amide] has a pIC50 [1] of 8.10, an ED50 [2, 5] of over 1 mg/kg and a minimal effective dose [3, 6] of over 10 mg/kg.
For `CN(CCN1C2=C(C(=O)Nc3c(F)cccc3F)C(=O)CCN2c2cc3ccccc3cc21)Cc1ccccc1` [Example 7, 5-[2-(benzylmethylamino)ethyl)-3-oxo-1,2,3,5-tetrahydronaphtho[2',3': 4,5]imidazo[1,2-a]pyridine-4-carboxylic acid (2.6-difluorophenyl)amide], the pIC50 [1] was 7.24, the ED50 [2, 5] was over 1 mg/kg and the minimal effective dose [3, 4] was over 10 mg/kg.
`CNCCN1C2=C(C(=O)Nc3ccccc3F)C(=O)CCN2c2cc3ccccc3cc21.Cl` [Example 8, 5-[2-(methylamino)ethyl)-3-oxo-1,2,3,5-tetrahydronaphtho[2',3': 4,5]imidazo[1,2-a]pyridine-4-carboxylic acid (2-fluorophenyl)amide hydrochloride] gave a pIC50 [1] of 8.10, an ED50 [2, 5] of over 1 mg/kg and a minimal effective dose [3, 6] of over 10 mg/kg.
Work on `CNCCN1C2=C(C(=O)Nc3c(F)cccc3F)C(=O)CCN2c2cc3ccccc3cc21.Cl` [Example 9, 5-[2-(methylamino)ethyl)-3-oxo-1,2,3,5-tetrahydronaphtho[2',3': 4,5]imidazo[1,2-a]pyridine-4-carboxylic acid (2,6-difluorophenyl)amide hydrochloride] yielded a pIC50 [1] of 7.12, an ED50 [2, 5] of over 1 mg/kg and a minimal effective dose [3, 4] of over 10 mg/kg.
`CCOCN1C2=C(C(=O)Nc3c(F)cccc3F)C(=O)CCN2c2cc3ccccc3cc21` [Example 10, 5-Ethoxymethyl-3-oxo-1,2,3,5-tetrahydronaphtho[2',3': 4,5]-imidazo[1,2-a]pyridine-4-carboxylic acid (2,6-difluorophenyl)amide] was tested, and the pIC50 [1] was 7.89, the ED50 [2, 5] was over 1 mg/kg and the minimal effective dose [3, 4] was over 10 mg/kg.
`O=C1CCN2C(=C1C(=O)Nc1ccccc1F)Nc1ccc3ccccc3c12` [Example 11, 3-Oxo-1,2,3,5-tetrahydronaphtho[2',1': 4,5]imidazo[1,2-a]-pyridine-4-carboxylic acid (2-fluorophenylamide)] was tested, and the pIC50 [1] was under 6.00, the ED50 [2, 5] was over 1 mg/kg and the minimal effective dose [3, 4] was over 10 mg/kg.
`COCCN1C2=C(C(=O)Nc3ccccc3F)C(=O)CCN2c2c1ccc1ccccc21` [Example 12, 5-(2-Methoxyethyl)-3-oxo-1,2,3,5-tetrahydronaphtho[2',1': 4,5]-imidazo[1,2-a]pyridine-4-carboxylic acid (2-fluorophenylamide)] showed a pIC50 [1] of 7.24, an ED50 [2, 5] of over 1 mg/kg and a minimal effective dose [3, 4] of over 10 mg/kg.
For `O=C1CCN2C(=C1C(=O)Nc1ccccc1F)Nc1c2ccc2ccccc12` [Example 13, 3-Oxo-1,2,3,5-tetrahydronaphtho[1',2': 4,5]imidazo[1,2-a]pyridine-4-carboxylic acid (2-fluorophenylamide)], the pIC50 [1] was 6.81, the ED50 [2, 5] was over 1 mg/kg and the minimal effective dose [3, 4] was over 10 mg/kg.
`O=C1CCN2C(=C1C(=O)Nc1ccccc1F)N(CC1CC1)c1cc3ccccc3cc12` [Example 14] gave a pIC50 [1] of 9.24, an ED50 [2, 5] of under 1 mg/kg and a minimal effective dose [3, 6] of over 10 mg/kg.
`CCOCN1C2=C(C(=O)Nc3ccccc3F)C(=O)CCN2c2cc3ccccc3cc21` [Example 15] showed a pIC50 [1] of 8.66, an ED50 [2, 5] of under 1 mg/kg and a minimal effective dose [3, 6] of over 10 mg/kg.
In the case of `CCN1C2=C(C(=O)Nc3cccs3)C(=O)CCN2c2cc3ccccc3cc21` [Example 16], the pIC50 [1] was 9.15, the ED50 [2, 5] was under 1 mg/kg and the minimal effective dose [3, 4] was over 10 mg/kg.
`O=C1CCN2C(=C1C(=O)Nc1nccs1)Nc1cc3ccccc3cc12` [Example 17] gave a pIC50 [1] of 6.44 and an ED50 [2, 5] of over 1 mg/kg.
With `CCN1C2=C(C(=O)Nc3nccs3)C(=O)CCN2c2cc3ccccc3cc21` [Example 18] the pIC50 [1] was 7.95, the ED50 [2, 5] was under 1 mg/kg and the minimal effective dose [3, 6] was over 10 mg/kg.
`COCCN1C2=C(C(=O)Nc3nccs3)C(=O)CCN2c2cc3ccccc3cc21` [Example 19] showed a pIC50 [1] of 8.47, an ED50 [2, 5] of under 1 mg/kg and a minimal effective dose [3, 6] of over 10 mg/kg.
`O=C1CCN2C(=C1C(=O)Nc1c(F)cccc1F)Nc1c2ccc2ccccc12` [Example 20] was tested, and the pIC50 [1] was 8.56, the ED50 [2, 5] was under 1 mg/kg and the minimal effective dose [3, 4] was over 10 mg/kg.
`CCN1C2=C(C(=O)Nc3ccccc3F)C(=O)CCN2c2ccc3ccccc3c21` [Example 21] showed a pIC50 [1] of 7.78, an ED50 [2, 5] of over 1 mg/kg and a minimal effective dose [3, 4] of over 10 mg/kg.
`COCCN1C2=C(C(=O)Nc3ccccc3F)C(=O)CCN2c2ccc3ccccc3c21` [Example 22] showed a pIC50 [1] of 7.50, an ED50 [2, 5] of over 1 mg/kg and a minimal effective dose [3, 6] of over 10 mg/kg.
`O=C1CCN2C(=C1C(=O)Nc1c(F)cccc1F)Nc1c2ccc2ccccc12` [Example 23] showed a pIC50 [1] of 7.75 and a minimal effective dose [3, 6] of 10 mg/kg.
In the case of `COCCN1C2=C(C(=O)Nc3c(F)cccc3F)C(=O)CCN2c2ccc3ccccc3c21` [Example 24], the pIC50 [1] was 9.54, the ED50 [2, 5] was 1 mg/kg and the minimal effective dose [3, 4] was over 3 mg/kg.
`CCOCCN1C2=C(C(=O)Nc3c(F)cccc3F)C(=O)CCN2c2ccc3ccccc3c21` [Example 25] showed a pIC50 [1] of 8.43 and a minimal effective dose [3, 4] of over 3 mg/kg.
Work on `CCOCN1C2=C(C(=O)Nc3c(F)cccc3F)C(=O)CCN2c2ccc3ccccc3c21` [Example 26] yielded a pIC50 [1] of 7.99 and a minimal effective dose [3, 6] of over 10 mg/kg.
